The record followed here is ChEMBL document CHEMBL2384977, “Synthesis and biological evaluation of novel styryl benzimidazole derivatives as probes for imaging of neurofibrillary tangles in Alzheimer's disease” (Bioorg Med Chem, 2013).

For data set [1], the system named is Brain. Briefly: Ratio of drug level in ddY mouse brain at 64.5 kBq, iv measured at 2 mins to drug level in ddY mouse brain at 64.5 kBq, iv measured at 60 mins. It is filed as ADME, organism-based. To be noted: in vivo.
Data set [2] concerns Brain. Briefly: Ratio of drug level in mouse brain measured at 2.5 mins to drug level in mouse brain measured at 20 mins. Particulars: in vivo. Format: ADME, tissue-based.

Molecules are shown by their SMILES.

Take `CN(C)c1ccc(/N=N/c2nc3ccc(OCCOCCOCC[18F])cc3s2)cc1`: the Ratio with Brain [1] is listed as 1.69.

With `[18F]CCC1CCN(c2ccn3c(n2)nc2ccccc23)CC1`, the Ratio in the data set with Brain [2] was 2.92.
